From article PMC4128710 (Biochemical pharmacology, 2014)
Where two headings read alike, the source gives them in different places.

Columns and labels:
A2BAR [1] = target: T1, A2BAR (Homo sapiens, UniProt P29275); assay: cAMP accumulation in T24 cells endogenously expressing the A2BAR; conditions: for Emax: T-24, read-out: Max effect cAMP (% of effect of NECA)
T1 sequence (P29275 1-332): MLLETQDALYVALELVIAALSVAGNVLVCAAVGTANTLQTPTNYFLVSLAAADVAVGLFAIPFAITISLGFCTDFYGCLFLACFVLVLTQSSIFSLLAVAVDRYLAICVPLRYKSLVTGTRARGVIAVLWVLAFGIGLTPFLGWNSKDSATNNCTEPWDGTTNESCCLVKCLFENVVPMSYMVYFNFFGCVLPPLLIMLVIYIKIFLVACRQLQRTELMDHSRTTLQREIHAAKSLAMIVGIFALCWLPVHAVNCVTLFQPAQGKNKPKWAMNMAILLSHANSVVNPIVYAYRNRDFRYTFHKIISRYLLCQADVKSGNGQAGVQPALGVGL

A2BAR [2] = target: T1, A2BAR; assay: ERK1/2 phosphorylation in HEK293 cells overexpressing the A2BAR; conditions: for log (τ/KA) / τ / Δlog (τ/Ka): ERK1/2 pathway; for τ: operational model, A2BAR-overexpressing HEK293; for Δlog (τ/Ka): relative to NECA; for ΔΔlog (τ/KA): ERK1/2 versus cAMP reference pathway; for Bias: ERK1/2 versus cAMP, bias ≫1 disfavors the pathway; for Emax: HEK293, read-out: Max effect ERK1/2 (% of effect of NECA)
A2BAR [3] = target: T1, A2BAR; assay: cAMP accumulation in HEK293 cells overexpressing the A2BAR; conditions: for Emax: HEK293, read-out: Max effect cAMP (% of effect of NECA); for τ: operational model, A2BAR-overexpressing HEK293
mouse A2BAR [4] = assay: β-Arrestin2 translocation in PathHunter CHO cells; conditions: for ΔΔlog (τ/KA): β-Arrestin versus cAMP reference pathway; for Bias: β-Arrestin versus cAMP, bias ≫1 disfavors the pathway
mouse A2BAR [5] = target: T2, mouse A2BAR (Mus musculus, UniProt Q60614); assay: β-Arrestin2 translocation in PathHunter CHO cells; conditions: for Emax: CHO, read-out: Max effect β-arrestin (% of effect of NECA); for log (τ/KA) / τ / Δlog (τ/Ka): β-Arrestin pathway; for τ: operational model, CHO mouse A2BAR; for Δlog (τ/Ka): relative to NECA; for Max effect β-arrestin (% of effect of NECA): PathHunter CHO cells, mouse A2BAR
T2 sequence (Q60614 1-332): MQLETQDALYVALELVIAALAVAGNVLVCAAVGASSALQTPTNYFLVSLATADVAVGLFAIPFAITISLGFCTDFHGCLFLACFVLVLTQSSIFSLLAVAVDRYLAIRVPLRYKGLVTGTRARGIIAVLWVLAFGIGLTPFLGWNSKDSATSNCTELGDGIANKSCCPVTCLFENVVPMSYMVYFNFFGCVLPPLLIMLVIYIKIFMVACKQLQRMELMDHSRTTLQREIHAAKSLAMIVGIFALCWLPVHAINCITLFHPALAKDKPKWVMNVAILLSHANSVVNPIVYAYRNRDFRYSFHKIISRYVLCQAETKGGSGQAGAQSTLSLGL

A2BAR [6] = target: T1, A2BAR; assay: cAMP accumulation in 1321N1 astrocytoma cells endogenously expressing the A2BAR; conditions: for Emax: 1321-N1, read-out: Max effect cAMP accumulation
A2BAR [7] = target: T1, A2BAR; conditions: for Emax: PC-3, read-out: Max effect cAMP accumulation
A2BAR [8] = target: T1, A2BAR; assay: ERK1/2 phosphorylation in HEK293 cells; conditions: for Emax: HEK293, read-out: Max effect ERK1/2 (% of effect of NECA)
A2BAR [9] = assay: cAMP accumulation in COS-7 cells endogenously expressing the A2BAR; conditions: for Max effect cAMP accumulation: NECA = 100; for EC50: read-out: EC50 cAMP accumulation
A2BAR [10] = target: T1, A2BAR; assay: ERK1/2 phosphorylation in T24 cells; conditions: for Emax: T-24, read-out: Max effect ERK1/2 (% of effect of NECA)
A2BAR [11] = target: T1, A2BAR; assay: Intracellular calcium mobilization in HEK293 cells; conditions: HEK293, read-out: Max effect Calcium (% of effect of NECA)
A2BAR [12] = target: T1, A2BAR; assay: cAMP accumulation in WM266 melanoma cells endogenously expressing the A2BAR; conditions: for Emax: WM266, read-out: Max effect cAMP accumulation
A2BAR [13] = target: T1, A2BAR; assay: Intracellular calcium mobilization in HEK293 cells overexpressing the A2BAR; conditions: for τ: operational model, A2BAR-overexpressing HEK293; for Bias: Calcium versus cAMP, bias ≫1 disfavors the pathway
A2BAR [14] = target: T1, A2BAR; assay: cAMP accumulation in HEK293 cells endogenously expressing the A2BAR; conditions: for Emax: HEK293, read-out: Max effect cAMP (% of effect of NECA)
A2BAR [15] = target: T1, A2BAR; assay: Intracellular calcium mobilization in T24 cells; conditions: for Emax: T-24, read-out: Max effect Calcium (% of effect of NECA)
[16] = test system: MIN-6 mouse pancreatic β cells; assay: Insulin release in MIN6 cells; type: cell-based; conditions: MIN-6 cells, 16.7 mM glucose, 1 h

## Nc1nc(OCCc2c[nH]c3ccccc23)nc2c1ncn2[C@@H]1O[C@H](CO)[C@@H](O)[C@H]1O [MRS3534, 2-(2-(indol-3-yl)ethyloxy)adenosine]
A2BAR [1]
  EC50: 2160 ± 350 nM

## Nc1nc(OCCc2c[nH]c3cc(Br)ccc23)nc2c1ncn2[C@@H]1O[C@H](CO)[C@@H](O)[C@H]1O [MRS3997, 2-(2-(6-bromo-indol-3-yl)ethyloxy)adenosine]
A2BAR [2]
  EC50: 203 ± 48 nM
  Kd: 362 nM
  log (τ/KA): 6.08 ± 0.89
  τ: 0.44
  Δlog (τ/Ka): 0.45 ± 0.03
  ΔΔlog (τ/KA): 0.14
  Bias: 1.38
  Emax: 29.7 ± 2.6%
A2BAR [3]
  EC50: 62.9 ± 7.6 nM
  Kd: 6.7 µM
  Emax: 102 ± 6.6%
A2BAR [3]; cAMP pathway
  log (τ/KA): 6.83 ± 0.45
  τ: 45.1
Mouse A2BAR [4]
  ΔΔlog (τ/KA): 2.15
  Bias: 141
Mouse A2BAR [5]
  Kd: 18.1 µM
  Emax: 28.1 ± 3.5%
  log (τ/KA): 4.17 ± 0.23
  τ: 0.27
  Δlog (τ/Ka): -1.56 ± 0.18
A2BAR [1]
  EC50: 745 ± 225 nM
  Emax: 94.9 ± 2.2%
A2BAR [6]
  EC50: 1260 ± 180 nM
  Emax: 98.4 ± 3.1%
A2BAR [7]
  EC50: 480 ± 32 nM
  Emax: 98.2 ± 7.7%
A2BAR [8]
  EC50: 166 ± 32 nM
  Emax: 42.3 ± 9.4%
A2BAR [9]
  Max effect cAMP accumulation: 100±6%
  EC50: 226 ± 32 nM
A2BAR [10]; T24 cells
  ERK1/2 stimulation: did not produce any stimulation
A2BAR [10]
  Emax: -8.2 ± 7.6%
A2BAR [11]
  Emax: 1.6 ± 2.2%
A2BAR [12]
  EC50: 1870 ± 320 nM
  Emax: 96.2 ± 1.8%
A2BAR [13]
  Kd: 7.1 µM
  Bias: 11500
A2BAR [13]; Calcium pathway
  log (τ/KA): 3.35 ± 0.44
  τ: 0.02
A2BAR [13]; Calcium versus cAMP reference pathway
  ΔΔlog (τ/KA): 4.06
A2BAR [14]
  EC50: 1020 ± 250 nM
  Emax: 96.2 ± 24.3%
A2BAR [15]
  Emax: -2.7 ± 3.2%

## OC[C@H]1O[C@@H](n2cnc3c(Nc4ccc(I)cc4)ncnc32)[C@H](O)[C@@H]1O [MRS5911, N^6-(4-iodophenyl)adenosine]
A2BAR [2]
  EC50: 2680 ± 460 nM
  Kd: 5260 nM
  log (τ/KA): 5.11 ± 0.52
  τ: 0.68
  Δlog (τ/Ka): -0.52 ± 0.04
  ΔΔlog (τ/KA): 0.27
  Bias: 1.86
  Emax: 36.3 ± 5.2%
A2BAR [3]
  EC50: 25.3 ± 7.8 nM
  Kd: 7.76 µM
  Emax: 93.2 ± 4.5%
A2BAR [3]; cAMP pathway
  log (τ/KA): 7.17 ± 0.68
  τ: 116
A2BAR [3]; cAMP pathway, relative to NECA
  Δlog (τ/Ka): -0.25 ± 0.02
Mouse A2BAR [4]
  ΔΔlog (τ/KA): 1.38
  Bias: 24
Mouse A2BAR [5]
  EC50: 48.1 µM
  Kd: 83.4 µM
  Emax: 40.9 ± 2.9%
  log (τ/KA): 4.10 ± 0.22
  τ: 1.04
  Δlog (τ/Ka): -1.63 ± 0.20
A2BAR [1]
  EC50: 899 ± 226 nM
  Emax: 77.7 ± 3.3%
A2BAR [6]
  EC50: 1010 ± 180 nM
  Emax: 89.8 ± 9.2%
A2BAR [7]
  EC50: 321 ± 66 nM
  Emax: 89.4 ± 2.6%
A2BAR [8]
  EC50: 1530 ± 340 nM
  Emax: 46.1 ± 9.2%
A2BAR [9]
  Max effect cAMP accumulation: 99.3±2.1%
  EC50: 418 ± 22 nM
A2BAR [10]; T24 cells, 10 μM
  ERK1/2 phosphorylation, increase above basal value: ~13%
A2BAR [10]
  Emax: 13.1 ± 4.5%
A2BAR [11]
  Emax: 7.1 ± 3.2%
A2BAR [12]
  EC50: 1270 ± 220 nM
  Emax: 48.3 ± 4.9%
A2BAR [13]
  EC50: 7.15 ± 2.36 µM
  Kd: 84.7 µM
  Bias: 85
A2BAR [13]; Calcium pathway
  log (τ/KA): 3.84 ± 0.19
  τ: 0.59
A2BAR [13]; Calcium pathway, relative to NECA
  Δlog (τ/Ka): -1.20 ± 0.13
A2BAR [14]
  EC50: 1130 ± 340 nM
  Emax: 68.7 ± 11.1%
A2BAR [15]
  EC50: 6.17 ± 1.99 µM
  Emax: 36.9 ± 8.6%

## CCNC(=O)[C@H]1O[C@@H](n2cnc3c(N)ncnc32)[C@H](O)[C@@H]1O [NECA, adenosine-5′-N-ethyluronamide]
Mouse A2BAR [4]
  Bias: 1.00
Mouse A2BAR [5]
  Max effect β-arrestin (% of effect of NECA): 100%
  τ: 38.9
A2BAR [9]
  EC50: […]
A2BAR [9]; relatively high A2BAR level, data not shown
  cAMP efficacy compared with forskolin: […]

## CCCn1c(=O)[nH]c2nc(-c3ccc(S(=O)(=O)N4CCN(c5ccc(Cl)cc5)CC4)cc3)[nH]c2c1=O [PSB603]
[16]
  Glucose stimulated insulin secretion: induced insulin secretion

## C[C@H](Cc1ccccc1)Nc1ncnc2c1ncn2[C@@H]1O[C@H](CO)[C@@H](O)[C@H]1O [R-PIA, R-N^6-(phenylisopropyl)adenosine]
Mouse A2BAR [5]
  Max effect β-arrestin (% of effect of NECA): 13.2 ±1.1%
